Experimental data: ChEMBL document CHEMBL4831504, “Rearranged Diels-Alder Adducts and Prenylated Flavonoids as Potential PTP1B Inhibitors from Morus nigra” (J Nat Prod, 2021)

Experiments:
[1] = target: T1, Tyrosine-protein phosphatase non-receptor type 1 (Homo sapiens) (UniProt P18031); assay: Inhibition of recombinant PTP1B catalytic domain (unknown origin) assessed as reduction in pNP formation using pNPP as substrate at 20 ug/ml by absorbance based analysis relative to control; details: dose 20.0 µg/ml
T1 sequence (whole entry): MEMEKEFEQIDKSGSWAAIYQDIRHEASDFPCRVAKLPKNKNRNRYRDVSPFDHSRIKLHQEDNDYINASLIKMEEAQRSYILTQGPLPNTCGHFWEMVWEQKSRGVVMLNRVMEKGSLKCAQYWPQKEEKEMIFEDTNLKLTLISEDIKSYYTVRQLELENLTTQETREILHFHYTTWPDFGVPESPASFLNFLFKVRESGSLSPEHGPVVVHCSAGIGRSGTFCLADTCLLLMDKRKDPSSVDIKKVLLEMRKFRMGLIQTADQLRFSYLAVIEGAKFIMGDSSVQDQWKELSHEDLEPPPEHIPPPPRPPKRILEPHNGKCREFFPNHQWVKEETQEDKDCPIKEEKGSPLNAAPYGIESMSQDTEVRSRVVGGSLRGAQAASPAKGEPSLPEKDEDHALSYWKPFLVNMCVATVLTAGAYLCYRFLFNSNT

[2] = target: T2, Tyrosine-protein phosphatase non-receptor type 1 (Homo sapiens, UniProt P18031); assay: Inhibition of recombinant PTP1B catalytic domain (unknown origin) assessed as reduction in pNP formation using pNPP as substrate by absorbance based analysis
T2 sequence (P18031 whole entry): T1 sequence (whole entry)

inhibition [1]	IC50 [2]	SMILES
97%	1.8 µM	CC(C)=CCc1c(O)ccc(C(=O)Oc2cc(/C=C/c3ccc(O)cc3O)cc(O)c2-c2cc(C)cc(-c3ccc(O)cc3O)c2)c1O
45.4%	≥ 50 µM	CC(C)=C[C@H]1Oc2cc(O)ccc2-c2oc3cc(O)ccc3c(=O)c21
70.9%	20 µM	CC(C)=CCc1c(-c2ccc(O)cc2O)oc2cc3c(c(O)c2c1=O)C=CC(C)(C)O3 [CUDRAFLAVONE B]
93.3%	7.7 µM	CC(C)=CCc1cc(-c2oc3c(CC=C(C)C)c(O)cc(O)c3c(=O)c2CC=C(C)C)c(O)cc1O
95.8%	5.3 µM	CC(C)=CCC/C(C)=C/Cc1c(O)cc(O)c2c(=O)c(CC=C(C)C)c(-c3ccc(O)cc3O)oc12
71.5%	22.1 µM	CC(C)=CCc1c(-c2ccc(O)cc2O)oc2c3c(cc(O)c2c1=O)OC(C)(C)C=C3 [MORUSIN]
99.2%	1.3 µM	CC(C)=CCc1c(O)ccc(C(=O)Oc2cc(-c3cc4ccc(O)cc4o3)cc(O)c2-c2cc(C)cc(-c3ccc(O)cc3O)c2)c1O
77.6%	12.5 µM	CC(C)=CCc1cc(-c2oc3cc(O)cc(O)c3c(=O)c2CC=C(C)C)c(O)cc1O
39.1%	≥ 50 µM	CC1(C)Oc2cc3oc(-c4cc(O)cc(O)c4)cc3cc2CC1O (stereo not drawn) [(+/-)-MORACIN P]
90.6%	10.2 µM	CC(C)=CCc1c(O)cc(-c2cc3ccc(O)cc3o2)cc1O [MORACIN C]
